Assay results reported in patent US6551793B1, “Carotenoid-associated proteins useful for high carotenoid accumulation and production in plants and other organisms” (Yissum Research Development Company of the Hebrew …, priority 1996, dated 2003).

Experiments:
Assay type in all cases: cell-based, Cucumis sativus
Psy mRNA = assay: In vitro flower bud culture, Northern blot of Psy mRNA in corollas
Procedure: (§1) Young flower buds were cultured in vitro in the presence (GA) or the absence (C) of 100 μM GA3 for up to 48 hours. Northern and Western blot analyses of corollas, cultured for the indicated periods of time, were performed. The Northern blots (25 μg total RNA/lane) were hybridized with ^32P-labeled DNA inserts from CHRC (CHRC), […] (Psy), and 18s rDNA (18S). Western blot analysis (bottom panel of A) was performed using antibodies against CHRC protein (25 μg total protein/lane). The results of the CHRC Northern blot analyses are also shown graphically relative to the mRNA level of the untreated corollas at zero time (0) (arbitrary value of 1).
(§2) Flower buds were cultured in the presence of 100 μm GA3 (GA), 100 μg/ml paclobutrazol following 2 hours of pretreatment with 100 μg/ml paclobutrazol (P), 100 μg/ml paclobutrazol +100 μm GA3 following 2 hours of pretreatment with 100 μg/ml paclobutrazol (P/GA), 100 μM ABA (ABA), or no phytohormones (C). Total RNA was extracted from corollas after 2 hours of treatment. Northern blot analyses were performed and probed as described in the legend to FIG. 7.
(§3) Total RNA and protein were extracted from cucumber corollas of flower buds cultured for 6 hours in the presence of 100 μM GA3 (GA), 50 μM CHX following 2 hours of pretreatment with 50 μM CHX (CHX/GA), or no phytohormones (C). Northern (CHRC, Psy, and 18S) and Western (bottom panel) blot analyses were performed as described above.
This example describes plant material and conditions for in vitro flower bud culture. C. sativus L. plants (cultivar Shimahon, obtained from Zeraim Gadera, Israel) were grown under standard greenhouse conditions. In vitro culture of flower buds was performed at 23° C., under constant light from cool white fluorescent lamps with a photosynthetic photon flux density of 80 μmol/m^2 g, as described previously. Briefly, buds at developmental stage 1 (˜8 mm in length, 120 hours before anthesis) were collected and rinsed several times with sterile water. Buds were then placed for 24 hours on a perforated Parafilm (American National Can, Greenwich, Conn.) covering a Petri dish filled with double-distilled sterile water, such that only the bases of the buds were in contact with the liquid. […]
This example describes conditions used for RNA isolation and Northern blot analysis. […] Autoradiograms were quantified by scanning suitably exposed films in a densitometer (Molecular Dynamics, Sunnyvale, Calif.). The amount of RNA loaded onto the gels was standardized by optical measurement, by quantitation of the ethidium bromide fluorescence of cytoplasmic rRNA. and by the level of hybridization with a DNA fragment coding for cytoplasmic 18S RNA.

CHRD = assay: In vitro flower bud culture, Western blot of CHRD in corollas
Procedure: CHRD levels in corollas were analyzed by western blotting (10 μg of total protein per lane) using antibodies against CHRD and horseradish peroxidase anti-rabbit IgG in an enhanced chemiluminescence detection system. FIG. 14B is a Western blot analysis of corollas (50 μg of total protein per lane) cultured for the indicated periods with (+) or without (−) GA3. The blot was decorated with antibodies against CHRD and alkaline phosphatase anti-rabbit 1 gG.
(§4) In FIG. 15A, antibodies against CHRD or CHRC were used in a western blot analysis of CHRD and CHRC levels, respectively, in corollas cultured for 72 hours in the presence (E) or absence (C) of ethylene (50 μg of total protein per lane). In FIG. 15B, flowers were enclosed in aluminum foil in the greenhouse for 3 days and CHRD levels in etiolated (D) and control, nonetiolated (L) corollas were analyzed by western blotting (50 μg of total protein per lane).
(§5) This example describes plant material and conditions for in vitro flower bud culture. C. sativus L. plants (cultivar Shimahon, obtained from Zeraim Gadera, Israel) were grown under standard greenhouse conditions. In vitro culture of flower buds was performed at 23° C., under constant light from cool white fluorescent lamps with a photosynthetic photon flux density of 80 μmol/m^2 g, as described previously. Briefly, buds at developmental stage 1 (˜8 mm in length, 120 hours before anthesis) were collected and rinsed several times with sterile water. Buds were then placed for 24 hours on a perforated Parafilm (American National Can, Greenwich, Conn.) covering a Petri dish filled with double-distilled sterile water, such that only the bases of the buds were in contact with the liquid. Following equilibration, buds were transferred to a fresh Petri dish (zero time for the experiments) and treated with GA3, ABA, paclobutrazol, or CHX, as specified in the figure legends.
CHRD protein was isolated from Cucumis sativus as a minor component, immunologically characterised and analyzed in terms of the regulation of its expression by developmental signals using methods and conditions described above for CHRC. […] Carotenoids are known to accumulate in dark.

CHRC mRNA = assay: In vitro flower bud culture, Northern blot of CHRC mRNA in corollas
Procedure: as §1, §2, §3
In FIG. 10, flower buds were cultured for 2 hours without (0) or with various concentrations of GA3. Total RNA was isolated from corollas, and a Northern blot was probed as above. The results of the CHRC Northern blot analyses are also shown graphically relative to the mRNA level of control corollas cultured without GA3 (arbitrary value of 1).
as §5
This example describes conditions used for RNA isolation and Northern blot analysis. Total RNA from corollas of cucumber flower buds was isolated as described previously. RNA (15 and 25 μg) was fractionated through a 1.2% formaldehyde gel and transferred to a Hybond-N^− filter (Amersham Corp.). A random priming kit (Boehringer Mannheim) was used to radioactively labeled DNA probes. The blots were hybridized with ^32P-labeled cucumber CHRC cDNA (Vishnevetsky, et al., Plant Journal, 10: 1111-1118 (1996)) and reprobed with melon phytoene synthase (PSY) cDNA (MEL5), provided by D. Grierson of the Nottingham University, UK. The hybridization for analysis of CHRC expression was carried out in 0.263 M Na2HPO4, 7% SDS, […], 1% BSA for 16 hours at 60° C., and the washes were performed in 2×SSC/0.1% SDS at 50° C. followed by 2×SSC/0.1% SDS at 55° C., for 20 minutes each. Hybridization with the MEL5 probe was carried out at 55° C. using the same procedure. Following the hybridization, the blots were washed in 5×SSC/0.1% SDS at 45° C. for 20 minutes followed by 5×SSC/0.1% SDS at 50° C. and 2×SSC/0.1% SDS at 50° C. for 20 minutes each. […]

CHRC protein = assay: In vitro flower bud culture, Western blot of CHRC protein in corollas
Procedure: as §4, §5

[1] = system: GUS reporter gene expression; assay: Transient expression of reporter gene GUS under CHRC promoter versus 35S CaMV promoter
Source text: FIGS. 1A and 1B show comparative photographs of cucumber flowers petals showing transient expression of the reporter gene GUS using CHRC promoter (FIG. 1A) or known 35S CaMV promoter (FIG. 1B).
The promoter containing CHRC upstream region was about 70% as efficient as the 35S CaMV promoter in cucumber petals and about 60% as efficient in leaves, fruits and stems. The CHRC promoter's efficiency in another representative of the cucurbit family, namely in melon, was similar to the efficiency found in cucumber.
In cucumber-petals, the CHRC upstream region was about 70% as efficient as the 35S CaMV promoter. In leaves, fruits and stems, the CHRC promoter was about 60% as efficient as 35S CaMV. Promoter's efficiency in melon was similar to that observed in cucumber.

[2] = 50 μM CHX with 100 μM GA3, 6 hours
[3] = dose response 1×10^−8 to 1×10^−4 M GA3, 2 hours
[4] = ethylene, corollas cultured for 72 hours

Molecule: CC(C)(C)[C@@H](O)[C@@H](Cc1ccc(Cl)cc1)n1cncn1 (racemic) [paclobutrazol]
- Effect on Psy mRNA levels (Psy mRNA; 100 μM ABA or 100 μg/ml paclobutrazol, 2 hours of treatment): Neither ABA nor paclobutrazol markedly affected
- CHRD level per unit protein, down-regulation compared with control untreated corollas (CHRD; flower buds cultured for 72 hours): 4.8±0.2 times
- Decrease in CHRC mRNA levels relative to control untreated corollas (CHRC mRNA; 100 μg/ml paclobutrazol after 2 hours of pretreatment, 2 hours of treatment): 4 fold

Molecule: C[C@@H]1C[C@@H]([C@H](O)CC2CC(=O)NC(=O)C2)C(=O)[C@@H](C)C1 [CHX, cycloheximide]
- Effect on Psy mRNA levels (Psy mRNA; 50 μM CHX, 6 hours): unaffected
- Effect on increase in CHRC protein levels in GA3-treated buds (CHRC protein; [2]): successfully abolished
- Effect on up-regulation of CHRC mRNA by GA3 (CHRC mRNA; [2]): did not prevent
- Effect of CHX alone on CHRC transcript accumulation (CHRC mRNA; CHX alone): did not affect

Molecule: C=C1C[C@]23C[C@@]1(O)CC[C@H]2[C@@]12C=C[C@H](O)[C@@](C)(C(=O)O1)[C@H]2[C@@H]3C(=O)O [GA3, Gibberellin A3]
- Effect on Psy mRNA levels (Psy mRNA; GA3 treatment, first 45 hours of corolla development): not affected
- CHRD level in treated versus untreated buds (CHRD; GA3, after only 2 hours): markedly higher
- CHRD accumulation with GA3 in the culture medium (CHRD; GA3, in vitro bud culture, 72 hours): enhanced accumulation
- CHRC per unit of protein in treated versus control corollas (CHRC protein; 100 μM GA3, after 2 hours of treatment): approximately 2.5 times
- CHRC mRNA level in treated versus control corollas (CHRC mRNA; 100 μM GA3, after 20 minutes of treatment): approximately twice as high
- CHRC transcript accumulation with exogenous GA3 added to paclobutrazol (CHRC mRNA; 100 μg/ml paclobutrazol + 100 μm GA3 after 2 hours paclobutrazol pretreatment): up-regulated CHRC transcript accumulation to the level of GA3-treated corollas
- Concentration at which CHRC was strongly up-regulated (CHRC mRNA; [3]): 10^−5−10^−4 M
- Lowest concentration sufficient to markedly elevate basal CHRC mRNA levels (CHRC mRNA; [3]): 10^−7 M
- Time to detectable increase in CHRC mRNA level (CHRC mRNA; response to GA3, early time points (data not shown)): 10 to 20 min

Molecule: C=C [ethylene]
- CHRD level per unit protein following treatment (CHRD; [4]): down-regulated
- CHRC level in treated corollas versus controls (CHRC protein; [4]): lower than that in controls

B1: CHRC upstream region: sequenced upstream region of the cucumber CHRC gene with strong promoter activity, SEQ ID NO:10 (nucleic acid, listed as Cucumis sativus)
DNA: AAGCTTTACAAATTAGGGTTACTTTATTCATTTTCATCCATTCTCTTTATTGTTAAATTTTGTACATTTATTCAATAATATTATATGTTTATTACAAATTCTCACTTTCTTATTCATACCTATTCACTCAAGCCTTTACCATCTTCCTTTTCTATTTCAATACTATTTCTACTTCATTTTTCACGTTTTTAACATCTTTCTTTATTTCTTGTCCACTTCGTTTAGGGATGCCTAATGTCCCAAATTTCATCTCTCGTAGTAACACAAAACCAATGTAATGCTACTTCTCTCTACATTTTTAATACAAATAAAGTGAAACAAAATATCTATAAATAAACAAATATATATATTTTGTTAGACGCTGTCTCAACCCATCAATTAAAAAATTTTGTTATATTTCTACTTTACCTACTAAATTTGTTTCTCATATTTACCTTTTAACCCCCACAAAAAAAAATTATAAAAAAGAAAGAAAAAAGCTAAACCCTATTTAAATAGCTAACTATAAGATCTTAAAATTATCCTCATCAGTGTATAGTTTAATTGGTTATTAACTTATAACATTATATATCTATGACATATACTCTCTCCTAGCTATTTCTCACATTTTTTAACTTAAGAAAATAGTCATAACATAGTCTAAAATTCAAACATCCACATGCTCTAATTTGATTAACAAAAAGTTAGAAATATTTATTTAAATAAAAAAGACTAATAAATATATAAAATGAATGTTCATACGCAGACCCATTTAGAGATGAGTATGCTTTCACATGCTGAGATTATTTTCAAAACTAAGGTTGTAGCAATATTAAATCAATAAAATTATTATAAATAACAAAATTAACCTGCTCGTGTTTGCTGTATATGGGAGGCTACAAAATAAATTAAACTAAAGATGATTATGTTTTAGACATTTTTTCTATCTGTATTAGTTTATACATATTAATTCAGGAGCTGCACAACCCAATTCTATTTTCGTTCCTTGGTGGCTGGGTTTCTCACAAGGTTCAATAGTCAATATTAGGTTTTATTGGACTTTTAATAGTATCAAACAAATCTATGTGTGAACTTAAAAATTGTATTAAATATTTAGGGTAACCTGTTGCCGTTTTTAGAATAATGTTTCTTCTTAATACACGAAAGCGTATTGTGTATTCATTCATTTGGCGCCTCACATGCTTCGGTTGGCTCGCTTTAGTCTCTGCCTTCTTTGTATATTGTACTCCCCCTCTTCCTATGCCACGTGTTCTGAGCTTAACAAGCCACGTTGCGTGCCATTGCCAAACAAGTCATTTTAACTTCACAAGGTCCGATTTGACCTCCAAAACAACGACAAGTTTCCGAACAGTCGCGAAGATCAAGGGTATAATCGTCTTTTTGAATTCTATTTCTCTTTATTTAATAGTCCCTCTCGTGTGATAGTTTTTAAAAGATTTTTAAAACGTAGCTGCTGTTTAAGTAAATCCCAGTCCTTCAGTTTGT
- Efficiency relative to the 35S CaMV promoter ([1]; cucumber leaves, fruits and stems): about 60%
- Efficiency relative to the 35S CaMV promoter ([1]; cucumber petals): about 70%
